Measurements reported in PubChem BioAssay AID220 (DTP/NCI, 2004).
Values joined by “and” are separate entries in the source; they are usually repeats but may differ in a detail not shown here. Identical values can stand only once. Records with an inconclusive call do not appear. Starred links: 1 amine or outer side, 2 acyl side, 3 side chain; linkers in the order of their positions; H or OH if unused. Positions of bridges follow the written chain, without caps; N, C: chain ends. Non-standard residues stand in square brackets, D forms with d. Residues, ends and D or L forms follow the SMILES beside them. Chains are numbered I, II in the order given. Actinocin(9to1) = Cc1c2oc3c(C)ccc(C(=O)[*:1])c3nc-2c(C(=O)[*:2])c(N)c1=O; NMeV = CN[CH](C(=O)O)C(C)C; Sar = CNCC(=O)O

System: CD8F1 mice, subcutaneous mammary adenocarcinoma, T/C%
Experiment: NCI In Vivo Anticancer Drug Screen. Data for tumor model Mammary Adenocarcinoma CD8F1 (subcutaneous) in CD8F1
Conditions: higher = larger tumour
Summary of the method: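 Compound-treated versus vehicle-treated mice with transplantable tumors; survival or tumor size compared as T/C.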

[1] = endpoint: median tumor weight change, dose: 12.5 mg/kg/injection, schedule: Q01DX001 (ip), vehicle: suspension in saline
[2] = endpoint: median tumor weight (est.), dose: 25.0 mg/kg/injection, schedule: Q07DX005 (ip), vehicle: Klucel (hydroxypropylcellulose) (HPC)
[3] = endpoint: median tumor weight (est.), dose: 50.0 mg/kg/injection, schedule: Q07DX005 (ip), vehicle: Klucel (hydroxypropylcellulose) (HPC)
[4] = endpoint: median tumor weight (est.), dose: 100.0 mg/kg/injection, schedule: Q07DX005 (ip), vehicle: Klucel (hydroxypropylcellulose) (HPC)
[5] = endpoint: median tumor weight (est.), dose: 200.0 mg/kg/injection, schedule: Q07DX005 (ip), vehicle: Klucel (hydroxypropylcellulose) (HPC)
[6] = endpoint: median tumor weight (est.), dose: 400.0 mg/kg/injection, schedule: Q07DX005 (ip), vehicle: Klucel (hydroxypropylcellulose) (HPC)
[7] = endpoint: median tumor weight change, dose: 62.0 mg/kg/injection, schedule: Q01DX001 (ip), vehicle: saline with Tween-80
[8] = endpoint: median tumor weight (est.), dose: 0.5 mg/kg/injection, schedule: Q07DX005 (ip), vehicle: saline
[9] = endpoint: median tumor weight (est.), dose: 1.0 mg/kg/injection, schedule: Q07DX005 (ip), vehicle: saline
[10] = endpoint: median tumor weight change, dose: 31.25 mg/kg/injection, schedule: Q01DX001 (ip), vehicle: other
[11] = endpoint: median tumor weight change, dose: 62.5 mg/kg/injection, schedule: Q01DX001 (ip), vehicle: other

C/C=C(\C)c1cc(=O)c2c(C)cc3c(c2o1)C(=O)c1c(O)c(C2CC(C)(N(C)C)C(OC(C)=O)C(C)O2)cc(C2CC(N(C)C)C(O)C(C)O2)c1C3=O (stereo not given)
T/C (endpoint: median tumor weight (est.), dose: 0.15 mg/kg/injection, schedule: Q07DX005 (ip), vehicle: saline): 157 % of control
T/C (endpoint: median tumor weight (est.), dose: 0.31 mg/kg/injection, schedule: Q07DX005 (ip), vehicle: saline): 100 % of control
T/C (endpoint: median tumor weight (est.), dose: 0.62 mg/kg/injection, schedule: Q07DX005 (ip), vehicle: saline): 116 % of control
T/C (endpoint: median tumor weight change, dose: 1.56 mg/kg/injection, schedule: Q01DX001 (ip), vehicle: suspension in saline): 164 % of control
T/C (endpoint: median tumor weight change, dose: 3.12 mg/kg/injection, schedule: Q01DX001 (ip), vehicle: suspension in saline): 153 % of control
T/C (endpoint: median tumor weight change, dose: 6.25 mg/kg/injection, schedule: Q01DX001 (ip), vehicle: suspension in saline): 116 % of control
T/C [1]: 82 % of control
T/C (endpoint: median tumor weight change, dose: 25.0 mg/kg/injection, schedule: Q01DX001 (ip), vehicle: suspension in saline): 64 % of control

COC1C(CO)OC(n2cnc3c(=S)nc(N)[nH]c32)C1O (stereo not given)
T/C (endpoint: median tumor weight (est.), dose: 12.5 mg/kg/injection, schedule: Q07DX005 (ip), vehicle: Klucel (hydroxypropylcellulose) (HPC)): 109 % of control
T/C [2]: 116 % of control
T/C [3]: 112 % of control
T/C [4]: 79 % of control
T/C [5]: 28 % of control
T/C [6]: 22 % of control

COc1cccc2c1C(=O)c1c(O)c3c(c(O)c1C2=O)C[C@@](O)(C(=O)CO)C[C@@H]3OC1CC(OC(C)=O)C(OC(C)=O)C(C)O1 (stereo not given in full)
T/C (endpoint: median tumor weight (est.), dose: 3.12 mg/kg/injection, schedule: Q07DX005 (ip), vehicle: distilled water + Tween-80): 65 % of control
T/C (endpoint: median tumor weight (est.), dose: 6.25 mg/kg/injection, schedule: Q07DX005 (ip), vehicle: distilled water + Tween-80): 58 % of control
T/C (endpoint: median tumor weight (est.), dose: 12.5 mg/kg/injection, schedule: Q07DX005 (ip), vehicle: distilled water + Tween-80): 6 % of control
T/C (endpoint: median tumor weight (est.), dose: 25.0 mg/kg/injection, schedule: Q07DX005 (ip), vehicle: distilled water + Tween-80): 13 % of control

C[Si](C)(C)O/C=C1\CCCCC1=O
T/C [7]: 70 % of control
T/C (endpoint: median tumor weight change, dose: 62.5 mg/kg/injection, schedule: Q01DX001 (ip), vehicle: saline with Tween-80): 119 % of control
T/C (endpoint: median tumor weight change, dose: 125.0 mg/kg/injection, schedule: Q01DX001 (ip), vehicle: saline with Tween-80): 54 % of control and 69 % of control
T/C (endpoint: median tumor weight change, dose: 250.0 mg/kg/injection, schedule: Q01DX001 (ip), vehicle: saline with Tween-80): 93 % of control

CCC1(O)CC2CN(CCc3c([nH]c4ccccc34)C(C(=O)OC)(c3cc4c(cc3OC)N(C)C3C(O)(C(N)=O)C(O)C5(CC)C=CCN6CCC43C65)C2)C1 (stereo not given) (tested in a mixture with another compound)
T/C (endpoint: median tumor weight (est.), dose: 0.12 mg/kg/injection, schedule: Q07DX005 (ip), vehicle: saline): 87 % of control
T/C (endpoint: median tumor weight (est.), dose: 0.25 mg/kg/injection, schedule: Q07DX005 (ip), vehicle: saline): 74 % of control
T/C [8]: 51 % of control
T/C [9]: 16 % of control

OCCN1CCN(CC/C=C2/c3ccccc3Sc3ccc(C(F)(F)F)cc32)CC1
T/C (endpoint: median tumor weight (est.), dose: 3.12 mg/kg/injection, schedule: Q07DX005 (ip), vehicle: saline): 70 % of control
T/C (endpoint: median tumor weight (est.), dose: 6.25 mg/kg/injection, schedule: Q07DX005 (ip), vehicle: saline): 107 % of control
T/C (endpoint: median tumor weight (est.), dose: 12.5 mg/kg/injection, schedule: Q07DX005 (ip), vehicle: saline): 120 % of control
T/C (endpoint: median tumor weight (est.), dose: 25.0 mg/kg/injection, schedule: Q07DX005 (ip), vehicle: saline): 101 % of control
T/C (endpoint: median tumor weight (est.), dose: 50.0 mg/kg/injection, schedule: Q07DX005 (ip), vehicle: saline): 81 % of control

C[C@]12CCC(=O)C(O)=C1CC[C@@H]1[C@@H]2CC[C@]2(C)C(=O)CC[C@@H]12
T/C (endpoint: median tumor weight (est.), dose: 100.0 mg/kg/injection, schedule: Q01DX001 (ip), vehicle: Klucel (hydroxypropylcellulose) (HPC)): 182 % of control
T/C [4]: 32 % of control
T/C (endpoint: median tumor weight (est.), dose: 200.0 mg/kg/injection, schedule: Q01DX001 (ip), vehicle: Klucel (hydroxypropylcellulose) (HPC)): 9 % of control
T/C [5]: 62 % of control
T/C (endpoint: median tumor weight (est.), dose: 400.0 mg/kg/injection, schedule: Q01DX001 (ip), vehicle: Klucel (hydroxypropylcellulose) (HPC)): 189 % of control
T/C [6]: 32 % of control
T/C (endpoint: median tumor weight (est.), dose: 800.0 mg/kg/injection, schedule: Q01DX001 (ip), vehicle: Klucel (hydroxypropylcellulose) (HPC)): 68 % of control
T/C (endpoint: median tumor weight (est.), dose: 800.0 mg/kg/injection, schedule: Q07DX005 (ip), vehicle: Klucel (hydroxypropylcellulose) (HPC)): 54 % of control
T/C (endpoint: median tumor weight change, dose: 125.0 mg/kg/injection, schedule: Q01DX001 (ip), vehicle: Klucel (hydroxypropylcellulose) (HPC)): 78 % of control
T/C (endpoint: median tumor weight change, dose: 250.0 mg/kg/injection, schedule: Q01DX001 (ip), vehicle: Klucel (hydroxypropylcellulose) (HPC)): 91 % of control
T/C (endpoint: median tumor weight change, dose: 500.0 mg/kg/injection, schedule: Q01DX001 (ip), vehicle: Klucel (hydroxypropylcellulose) (HPC)): 72 % of control
T/C (endpoint: median tumor weight change, dose: 1000.0 mg/kg/injection, schedule: Q01DX001 (ip), vehicle: Klucel (hydroxypropylcellulose) (HPC)): 68 % of control
T/C (endpoint: median tumor weight change, dose: 2000.0 mg/kg/injection, schedule: Q01DX001 (ip), vehicle: Klucel (hydroxypropylcellulose) (HPC)): 72 % of control

C=CS(=O)(=O)c1ccccc1
T/C (endpoint: mean tumor weight, dose: 25.0 mg/kg/injection, schedule: Q07DX005 (ip), vehicle: saline with Tween-80): 110 % of control
T/C (endpoint: mean tumor weight, dose: 50.0 mg/kg/injection, schedule: Q07DX005 (ip), vehicle: saline with Tween-80): 117 % of control
T/C (endpoint: mean tumor weight, dose: 100.0 mg/kg/injection, schedule: Q07DX005 (ip), vehicle: saline with Tween-80): 114 % of control
T/C (endpoint: mean tumor weight, dose: 200.0 mg/kg/injection, schedule: Q07DX005 (ip), vehicle: saline with Tween-80): 154 % of control

O=C1N[C@@H]([C@H]2CC[C@H](Cl)CN2)C(=O)N[C@H]1[C@H]1CC[C@H](Cl)CN1
T/C (endpoint: median tumor weight (est.), dose: 0.75 mg/kg/injection, schedule: Q07DX005 (ip), vehicle: saline): 40 % of control
T/C (endpoint: median tumor weight (est.), dose: 1.5 mg/kg/injection, schedule: Q07DX005 (ip), vehicle: saline): 29 % of control
T/C (endpoint: median tumor weight (est.), dose: 3.0 mg/kg/injection, schedule: Q07DX005 (ip), vehicle: saline): 11 % of control

COc1ccc(OC)c(Cc2cnc3nc(N)nc(N)c3c2C)c1
T/C [10]: 47 % of control
T/C [11]: 64 % of control

Cc1cc(=O)n2c3c(c4c(cc13)c(CN(C)C)cc(=O)n4C)OC2
T/C [7]: 190 % of control

CN(Cc1cnc2nc(N)nc(N)c2n1)c1c(Cl)cc(C(=O)NC(CCC(=O)O)C(=O)O)cc1Cl (stereo not given)
T/C [2]: 72 % of control and 82 % of control
T/C [3]: 53 % of control and 65 % of control

COC1=C(C)C(=O)C2=C(C1=O)C(CO)N1C(C#N)C3CC4C(C1C2N1CCOC41)N3C (stereo not given)
T/C (endpoint: median tumor weight change, dose: 0.62 mg/kg/injection, schedule: Q01DX001 (ip), vehicle: saline + alcohol): 120 % of control
T/C (endpoint: median tumor weight change, dose: 1.25 mg/kg/injection, schedule: Q01DX001 (ip), vehicle: saline + alcohol): 98 % of control and 107 % of control and 116 % of control

[Cl][Pt+2][Cl].[NH-]CC1(C[NH-])CCC1
T/C [1]: 79 % of control

O=C(CCCCCCC(=O)ON1C(=O)CCC1=O)ON1C(=O)CCC1=O
T/C (endpoint: median tumor weight change, dose: 187.5 mg/kg/injection, schedule: Q01DX001 (ip), vehicle: saline with Tween-80): 100 % of control
T/C (endpoint: median tumor weight change, dose: 375.0 mg/kg/injection, schedule: Q01DX001 (ip), vehicle: saline with Tween-80): 102 % of control
T/C (endpoint: median tumor weight change, dose: 750.0 mg/kg/injection, schedule: Q01DX001 (ip), vehicle: saline with Tween-80): 51 % of control

Cn1c(=O)[nH]c2nncnc2c1=O
T/C (endpoint: median tumor weight change, dose: 15.62 mg/kg/injection, schedule: Q01DX001 (ip), vehicle: other): 89 % of control
T/C [10]: 88 % of control
T/C [11]: 57 % of control

C[n+]1c(-c2cccc(OCCOCCOc3cccc(-c4c5cc(N)ccc5c5ccc(N)cc5[n+]4C)c3)c2)c2cc(N)ccc2c2ccc(N)cc21
T/C (endpoint: median tumor weight change, dose: 5.0 mg/kg/injection, schedule: Q01DX001 (ip), vehicle: water): 63 % of control
T/C (endpoint: median tumor weight change, dose: 10.0 mg/kg/injection, schedule: Q01DX001 (ip), vehicle: water): 72 % of control
T/C (endpoint: median tumor weight change, dose: 40.0 mg/kg/injection, schedule: Q01DX001 (ip), vehicle: water): 60 % of control

Cc1c2oc3c(C)ccc(C(=O)NC4C(=O)NC(C(C)C)C(=O)N5CCCC5C(=O)N(C)CC(=O)N(C)C(C(C)C)C(=O)OC4C)c3nc-2c(C(=O)NC2C(=O)NC(C(C)C)C(=O)N3CCCC3C(=O)N(C)CC(=O)N(C)C(C(C)C)C(=O)OC2C)c(N)c1=O (stereo not given) (I: TVP[Sar][NMeV] / II: TVP[Sar][NMeV]; ester I:1-I:C, II:1-II:C; linker I:N-II:N via Actinocin(9to1); configuration not given here)
T/C [8]: 26 % of control and 30 % of control
T/C [9]: 3 % of control and 20 % of control
